This assay has as its system cos-7 cells. Nature of the assay: DNA transfection: luciferase expression relative to Lipofectamine 2000. It is filed as cell-based. The note with it: luciferase assay after 48 hours; for Luciferase expression as a percentage of that achieved using Lipofectamine 2000: 300 ng Luciferase DNA per well; for % of the luciferase activity obtained from the use of Lipofectamine 2000: 300 ng DNA per well. Here is the method: 14,000 cos-7 cells (ATCC, Manassas, Va.) were seeded into each well of a solid white or clear 96 well plate (Corning-Costar, Kennebunk, Me.) and allowed to attached overnight in growth medium, composed of: 500 ml phenol red minus DMEM, 50 ml heat inactivated FBS, 5 ml penicillin/streptomycin (Invitrogen, Carlsbad, Calif.).
A small liquot of lipid was tranferred to an Eppendorf tube. Based on the mass of the lipid in the tube, sterile 25 mM sodium acetate buffer was added to each tube to yield a concentration of 60 mg/ml. The resulting mixture was vortexed for approximately 20 minutes until the lipid was fully dissolved. DNA was prepared based on 300 ng DNA per well of a 96-well plate. 291 μg of Lc DNA was dissolved in 9210 μl of 25 mM sodium acetate buffer. Aliquots of 30 μl of DNA solution were added to each well expect for the last column which was reserved for the Lipo2000 standard. For the last column of the plate, 61 μg of DNA was added to 1940 μl Optimem. 150 μl of media/Optimem was added to each well of plates. 50 μl of lipid solution was aliquoted into wells of robot plate. The following amounts were aliquoted to obtain the correct ratios of DNA to lipid:
In quadruplicate, 30 μl of lipid was aliquoted onto DNA in four rows for each ratio. For the Lipo2000 control (2.5 w/w ratio to DNA), 152.5 μg of Lipo sample was aliquoted into 1847.5 μl of Optimem. 30 μl of this solution was aliquoted onto DNA in the Optimem in the last columns of each plate. The plates were incubated for 15-20 minutes, and then 36.5 μl of lipid+DNA complexes was transferred into 150 μl of media/Optimem, then add to cells. The media was aspirated off the cells, and 105 μl of the lipid/DNA/media/Optimem solution was added to the cells. The luciferase assay was performed after 48 hours.
Luminescence was analyzed using bright-glo assay kits (Promega). Briefly, 100 μl of bright-glo solution was added to each well of the microtiter plate containing media and cells. Luminescence was measured using a Mithras Luminometer (Berthold, Oak Ridge, Tenn.). In some cases, a neutral density filter (Chroma, Brattleboro, Vt.) was used to prevent saturation of the luminometer. A standard curve for Luciferase was generated by titration of Luciferase enzyme (Promega) into growth media in white microtiter plates. Luciferase in ng per well are calculated for each of the lipids at 2.5 w/w, 5 w/w, 10 w/w, 15 w/w, 20 w/w, and 25 w/w lipid to DNA based on the standard curve.
The table below summarizes the data as a % of the luciferase activity obtained from the use of Lipofectamine 2000. The table indicates the best lipids for transfection.

Several values for one entry are separate records, joined by “and”; a condition that tells them apart may be missing. Equal entries are not always repeated.

Take `CCCCCCCCCCCCCCOC(=O)CC[N+](C)(CCCOC)CCC(=O)OCCCCCCCCCCCCCC.[I-]` [QF1]: the “Luciferase expression as a percentage of that achieved using Lipofectamine 2000” value (“Luciferase expression as a percentage” for short) runs as follows: (lipid/DNA 2.5 w/w) 0.4%; (lipid/DNA 5 w/w) 0.3%; (lipid/DNA 10 w/w) 0.4%; (lipid/DNA 15 w/w) 0.3%; (lipid/DNA 20 w/w) 0.3%; (lipid/DNA 25 w/w) 0.3%.
In the case of `CCCCCCCCCCCCCCOC(=O)CCN(CCC(=O)OCCCCCCCCCCCCCC)CCN(CCO)CCO` [LF86], the “Luciferase expression as a percentage” value is 21.5% (lipid/DNA 2.5 w/w); 17.9% (lipid/DNA 5 w/w); 19.6% (lipid/DNA 10 w/w); 21.2% (lipid/DNA 15 w/w); 10.5% (lipid/DNA 20 w/w); 10.4% (lipid/DNA 25 w/w).
As for `CCCCCCCCCCCCCOC(=O)CCN(CCC(=O)OCCCCCCCCCCCCC)CCN(CCO)CCO` [LE86], the “% of the luciferase activity obtained from the use of Lipofectamine 2000” value was 31.1% (2.5 w/w lipid to DNA); 22.7% (5 w/w lipid to DNA); 22.6% (10 w/w lipid to DNA); 2.5% (15 w/w lipid to DNA); 0.0% (20 w/w lipid to DNA); 0.0% (25 w/w lipid to DNA).
On to `CCCCCCCCCCOC(=O)CCN(CC)CCCN(CC)CCC(=O)OCCCCCCCCCC` [LB64], for which the “Luciferase expression as a percentage” value runs as follows: (lipid/DNA 2.5 w/w) 0.1%; (lipid/DNA 5 w/w) 0.1%; (lipid/DNA 10 w/w) 0.2% and 0.1%; (lipid/DNA 15 w/w) 0.1%; (lipid/DNA 20 w/w) 0.1%; (lipid/DNA 25 w/w) 0.2% and 0.1%.
Consider `CCCCCCCCCCCCCCOC(=O)CCN(CCC(=O)OCCCCCCCCCCCCCC)C(C)CN(C)C` (stereo not drawn) [LF79], for which the “Luciferase expression as a percentage” value was 0.1% (lipid/DNA 2.5 w/w); 0.3% (lipid/DNA 5 w/w); 0.3% (lipid/DNA 10 w/w); 0.3% (lipid/DNA 15 w/w); 0.3% (lipid/DNA 20 w/w); 0.3% (lipid/DNA 25 w/w).
For the compound `CCCCCCCCCCOC(=O)CCN1CCCN(CCC(=O)OCCCCCCCCCC)CC1` [LB70], the “Luciferase expression as a percentage” value came out at 0.1% (lipid/DNA 2.5 w/w); 0.1% (lipid/DNA 5 w/w); 0.1% (lipid/DNA 10 w/w); 0.1% (lipid/DNA 15 w/w); 0.1% (lipid/DNA 20 w/w); 0.1% (lipid/DNA 25 w/w).
In the case of `CCCCCCCCCCCCCCCOC(=O)CCN(CCC(=O)OCCCCCCCCCCCCCCC)CC(C)(C)CO` [LG33], the “Luciferase expression as a percentage” value by setting is: (lipid/DNA 2.5 w/w) 0.1%; (lipid/DNA 5 w/w) 0.1%; (lipid/DNA 10 w/w) 0.1%; (lipid/DNA 15 w/w) 0.1%; (lipid/DNA 20 w/w) 0.1%; (lipid/DNA 25 w/w) 0.1%.
`CCCCCCCCCCOC(=O)CCN(CCCO)CCC(=O)OCCCCCCCCCC` [LB20]: the “Luciferase expression as a percentage” value is 0.1% (lipid/DNA 2.5 w/w); 0.1% (lipid/DNA 5 w/w); 0.4% (lipid/DNA 10 w/w); 0.2% (lipid/DNA 15 w/w); 0.3% (lipid/DNA 20 w/w); 0.7% (lipid/DNA 25 w/w).
As to `CCCCCCCCCCOC(=O)CCN(CCC(=O)OCCCCCCCCCC)C[C@H](C)O` [LB22], the “Luciferase expression as a percentage” value runs as follows: (lipid/DNA 2.5 w/w) 0.3%; (lipid/DNA 5 w/w) 0.3%; (lipid/DNA 10 w/w) 0.4%; (lipid/DNA 15 w/w) 0.4%; (lipid/DNA 20 w/w) 0.4%; (lipid/DNA 25 w/w) 0.4%.
Take `CCCCCCCCCCCCCCCOC(=O)CCN(CCC(=O)OCCCCCCCCCCCCCCC)CC(C)O` (stereo not drawn) [LG21]: the “Luciferase expression as a percentage” value was 0.1% (lipid/DNA 2.5 w/w); 0.1% (lipid/DNA 5 w/w); 0.1% (lipid/DNA 10 w/w); 0.2% (lipid/DNA 15 w/w); 0.2% (lipid/DNA 20 w/w); 0.4% (lipid/DNA 25 w/w).
As for `CCCCCCCCCCCCCCCCCCOC(=O)CCN(CCC(=O)OCCCCCCCCCCCCCCCCCC)CC1COC(C)(C)O1` (stereo not drawn) [LH7], the “Luciferase expression as a percentage” value runs as follows: (lipid/DNA 2.5 w/w) 0.0%; (lipid/DNA 5 w/w) 0.0%; (lipid/DNA 10 w/w) 0.0%; (lipid/DNA 15 w/w) 0.0%; (lipid/DNA 20 w/w) 0.0%; (lipid/DNA 25 w/w) 0.0%.
As for `CCCCCCCCCCOC(=O)CCN(CCC(=O)OCCCCCCCCCC)CCC1CCCN1C` (stereo not drawn) [LB77], the “Luciferase expression as a percentage” value is 0.1% (lipid/DNA 2.5 w/w); 0.1% (lipid/DNA 5 w/w); 0.1% (lipid/DNA 10 w/w); 0.2% (lipid/DNA 15 w/w); 0.1% (lipid/DNA 20 w/w); 0.3% (lipid/DNA 25 w/w).
On to `CCCCCCCCCCCCCOC(=O)CCN(CCOCCO)CCC(=O)OCCCCCCCCCCCCC` [LE31], for which the “Luciferase expression as a percentage” value is recorded as 1.0% (lipid/DNA 2.5 w/w); 1.0% (lipid/DNA 5 w/w); 0.9% (lipid/DNA 10 w/w); 2.5% (lipid/DNA 15 w/w); 2.9% (lipid/DNA 20 w/w); 9.5% (lipid/DNA 25 w/w).
As for `CCCCCCCCCCCCCCCCCCOC(=O)CCN(CCOC)CCC(=O)OCCCCCCCCCCCCCCCCCC` [LH10], the “Luciferase expression as a percentage” value by setting is: (lipid/DNA 2.5 w/w) 0.0%; (lipid/DNA 5 w/w) 0.0%; (lipid/DNA 10 w/w) 0.0%; (lipid/DNA 15 w/w) 0.0%; (lipid/DNA 20 w/w) 0.0%; (lipid/DNA 25 w/w) 0.0%.

The values are drawn from patent US9006487B2, “Amine-containing lipids and uses thereof” (Massachusetts Institute of Technology, priority 2005, dated 2015).
